Holding throughout (format): in vivo
Experiment [1] concerns cattle tick larvae (Rhipicephalus microplus), strain Parkhurst, resistant against synthetic pyrethroids. Nature of the experiment: Rhipicephalus (Boophilus) microplus in-vitro contact test, larval cattle tick. Particulars: 5 μg/cm^2 (=500 g/ha), after 48 hours. Here is the method:
Rhipicephalus (Boophilus) Microplus—In-Vitro Contact Tests Larval Cattle Tick (Strain Parkhurst, Resistant Against Synthetic Pyrethroids)
9 mg compound is solved in 1 mL acetone and diluted with acetone to the desired concentration. 250 μL of the test solution is filled in 25 mL glass test tubes and homogeneously distributed on the inner walls by rotation and tilting on a shaking device (2 h at 30 rpm). With a compound concentration of 900 ppm, an inner surface of 44.7 cm^2 and a homogeneous distribution, a dose of 5 μg/cm^2 is achieved.
After the solvent has evaporated, each test tube is filled with 20-50 cattle tick larvae (Rhipicephalus microplus), closed with a perforated lid and incubated in a horizontal position at 85% relative humidity and 27° C. in an incubator. After 48 hours efficacy is determined. The larvae are patted on the ground of the tubes and negative geotactic behavior is recorded.
An efficacy of 100% means all larvae are dead or moribund; 0% means no larvae are dead or moribund.

For experiment [2], the system named is larvae of the banded cucumber beetle (Diabrotica balteata). Nature of the experiment: Diabrotica balteata spray test. The note with it: 168 h, 100 g/ha (=32 μg/well), after 7 days, read-out: efficacy (seedling growth). The gist of the method:
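Germinated wheat seeds on agar (5 per well) were sprayed with compound formulated in acetone/DMF and diluted in water with 1000 ppm emulsifier. Each unit was then infested with 10–20 larvae. Efficacy % was scored after 7 days as seedling growth relative to an untreated, uninfested control (100% = normal growth).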

Experiment [3] deals with larvae of the southern green stink bug (Nezara viridula). Nature of the experiment: whole plant or invertebrate. Particulars: 96 h. The gist of the method: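 Compound in acetone/DMF was diluted in water with 1000 ppm alkylarylpolyglycol ether emulsifier. Barley plants were sprayed with it, then infested with Nezara viridula larvae. Mortality % was scored after 4 days (100% = all killed).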

In experiment [4] the test system is fall armyworm larvae (Spodoptera frugiperda). Kind of experiment: whole plant or invertebrate. Particulars: 168 h. The gist of the method: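 Maize leaf sections sprayed with compound in acetone/DMF with alkylarylpolyglycol ether emulsifier diluted in water, then infested with fall armyworm larvae once dry. Mortality (%) scored after 7 days; 100% = all caterpillars killed.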

The test system of experiment [5] is green peach aphid (Myzus persicae). Kind of experiment: Myzus persicae spray test (MYZUPE). The note with it: 120 h, 100 g/ha, after 5 days. Here is the method:
Myzus persicae—Spray Test
• Solvent: 78.0 parts by weight acetone • 1.5 parts by weight dimethylformamide • Emulsifier: alkylarylpoly glycol ether
(§1) To produce a suitable preparation of active compound, 1 part by weight of active compound is mixed with the stated amount of solvents and is diluted with water, containing an emulsifier concentration of 1000 ppm, to the desired concentration. Further test concentrations are prepared by dilution with emulsifier containing water.
Chinese cabbage (Brassica pekinensis) leaf disks infected with all instars of the green peach aphid (Myzus persicae), are sprayed with a preparation of the active ingredient of the desired concentration.
After 5 days mortality in % is determined. 100% means all aphids have been killed and 0% means none of the aphids have been killed.
Myzus persicae—Spray Test (MYZUPE)
• Solvent: 78.0 parts by weight acetone • 1.5 parts by weight dimethylformamide • Emulsifier: alkylarylpolyglycol ether
After the specified period of time, mortality in % is determined. 100% means all aphids have been killed and 0% means none of the aphids have been killed.

For experiment [6], the system named is brown planthopper (Nilaparvata lugens). Nature of the experiment: Nilaparvata lugens spray test. The note with it: 96 h. The procedure:
Nilaparvata lugens—Spray Test
• Solvent: 78.0 parts by weight of acetone • 1.5 parts by weight of dimethylformamide • Emulsifier: alkylarylpolyglycol ether
as §1
Rice plants (Oryza sativa) are sprayed with a preparation of the active ingredient of the desired concentration and the plants are infested with the brown planthopper (Nilaparvata lugens).
After 4 days mortality in % is determined. 100% means all planthoppers have been killed and 0% means none of the planthoppers have been killed.

Each structure is given as a SMILES string.

This note sets out measurements from US12612386B2, “Heteroaryl-triazole compounds as pesticides” (Bayer Aktiengesellschaft, priority 2020, dated 2026).

By mortality is commonly meant the share of the test organisms that died. Read a high mortality as fewer survivors.

Turning to `Cc1nc([C@H](C)NC(=O)c2cc(OC(F)F)cc(OC(F)F)c2)n(-c2cc(C#N)ncn2)n1` [I-22], the “efficacy (larvae dead or moribund)” value in experiment [1] is on record as 100%. The pest or weed control at 32 µg/disc, 100 g/ha in experiment [2] worked out at 100%. In experiment [3], this compound registered a mortality at 500 g/ha of 100%. Besides, in experiment [4], the mortality at 100 g/ha was found to be 100%.
`C[C@H](NC(=O)c1cc(Cl)nc(C2(C#N)CC2)c1)c1ncnn1-c1cc(C#N)ncn1` [I-35, 2-chloro-6-(1-cyanocyclopropyl)-N-[(1S)-1-[2-(6-cyanopyrimidin-4-yl)-1,2,4-triazol-3-yl]ethyl]pyridine-4-carboxamide]: the “efficacy (larvae dead or moribund)” value in experiment [1] turned out to be 100%. In addition, the pest or weed control at 32 µg/disc, 100 g/ha in experiment [2] worked out at 100%. Moreover, the mortality at 100 g/ha in experiment [4] was 100%.
Regarding `C[C@H](NC(=O)c1cc(OC(F)(F)F)cc(OC(F)(F)F)c1)c1nc(C2CC2)nn1-c1cc(C#N)ncn1` [I-37], the “efficacy (larvae dead or moribund)” value in experiment [1] was 100%. The pest or weed control at 32 µg/disc, 100 g/ha in experiment [2] was 80%.
As to `CNC(=O)c1cc(-n2ncnc2[C@H](C)NC(=O)c2cc(Br)cc(OC(F)F)c2)ncn1` [I-72], the pest or weed control at 32 µg/disc, 100 g/ha in experiment [2] was 80%. Also, the mortality at 100 g/ha in experiment [5] turned out to be 90%; in experiment [4], 100%. In addition, the mortality at 500 g/ha in experiment [3] and in experiment [6] was 100% in each case.
As to `C[C@H](NC(=O)c1cc(C(F)(F)F)cc(S(C)(=O)=O)c1)c1ncnn1-c1cc(C(N)=O)ncn1` [I-78], the pest or weed control at 32 µg/disc, 100 g/ha in experiment [2] was found to be 100%. Further, the figures for the mortality at 100 g/ha in experiment [5] and in experiment [4] were 90% and 100%, respectively. Moreover, the mortality at 500 g/ha in experiment [3] and in experiment [6] was 100% each time.
As for `C[C@H](NC(=O)c1cc(F)cc(OC(F)F)c1)c1ncnn1-c1cc(C(N)=O)ncn1` [I-79], the pest or weed control at 32 µg/disc, 100 g/ha in experiment [2] was found to be 100%. The mortality at 100 g/ha in experiment [5] and in experiment [4] was 100% in each case. In addition, the mortality at 500 g/ha in experiment [3] and in experiment [6] was 100% in each case.
Consider `CNC(=O)c1cc(-n2ncnc2[C@H](C)NC(=O)c2cc(C(F)(F)F)cc(S(C)(=O)=O)c2)ncn1` [I-81], for which the pest or weed control at 32 µg/disc, 100 g/ha in experiment [2] amounted to 100%. Moreover, the mortality at 100 g/ha in experiment [5] and in experiment [4] was 100% in each case. Further, the mortality at 500 g/ha in experiment [3] and in experiment [6] was 100% throughout.
`C[C@H](NC(=O)c1cc(OC(F)(F)F)cc(S(C)(=O)=O)c1)c1ncnn1-c1cc(C(N)=O)ncn1` [I-82]: in experiment [2], the pest or weed control at 32 µg/disc, 100 g/ha was found to be 100%. The mortality at 100 g/ha in experiment [5] turned out to be 90%; in experiment [4], 100%. The mortality at 500 g/ha in experiment [3] and in experiment [6] was 100% in each case.
As for `CNC(=O)c1cc(-n2ncnc2[C@H](C)NC(=O)c2cc(OC(F)(F)F)cc(S(C)(=O)=O)c2)ncn1` [I-83], in experiment [2], the pest or weed control at 32 µg/disc, 100 g/ha stood at 100%. Moreover, the mortality at 100 g/ha in experiment [5] and in experiment [4] was 100% in each case. Further, the mortality at 500 g/ha in experiment [3] and in experiment [6] was 100% each time.
`C[C@H](NC(=O)c1cccc(C(F)(F)F)c1)c1ncnn1-c1cc(C(N)=O)ncn1` [I-92]: in experiment [2], the pest or weed control at 32 µg/disc, 100 g/ha worked out at 100%. In addition, the mortality at 100 g/ha in experiment [5] and in experiment [4] was 100% throughout. Moreover, the mortality at 500 g/ha in experiment [3] and in experiment [6] was 100% throughout.
Regarding `CNC(=O)c1cc(-n2ncnc2[C@H](C)NC(=O)c2cc(OC(F)F)cc(OC(F)F)c2)ncn1` [I-94], the pest or weed control at 32 µg/disc, 100 g/ha in experiment [2] was 100%. The mortality at 100 g/ha in experiment [5] and in experiment [4] was 100% throughout. For the same compound, the mortality at 500 g/ha in experiment [3] and in experiment [6] was 100% in each case.
Take `Cc1nc([C@H](C)NC(=O)c2cccc(OC(F)(F)F)c2)n(-c2cc(C(N)=O)ncn2)n1` [I-101]: the pest or weed control at 32 µg/disc, 100 g/ha in experiment [2] was found to be 100%. The results for the mortality at 100 g/ha in experiment [5] and in experiment [4] were 90% and 100%, respectively. Further, the mortality at 500 g/ha in experiment [3] and in experiment [6] was 100% each time.
Turning to `CNC(=O)c1nccc(-n2ncnc2[C@H](C)NC(=O)c2cc(OC(F)(F)F)cc(OC(F)(F)F)c2)n1` [I-116], in experiment [2], the pest or weed control at 32 µg/disc, 100 g/ha amounted to 100%. The mortality at 100 g/ha in experiment [5], in experiment [3] and in experiment [4] was 100% each time. Also, the mortality at 500 g/ha in experiment [3] and in experiment [6] was 100% in each case.
Consider `C[C@H](NC(=O)c1cc(Cl)cc(S(=O)(=O)C(F)F)c1)c1ncnn1-c1cc(C(N)=O)ncn1` [I-118], for which, in experiment [2], the pest or weed control at 32 µg/disc, 100 g/ha was 100%. The mortality at 100 g/ha in experiment [5] amounted to 90%; in experiment [3], 100%; in experiment [4], 100%. The mortality at 500 g/ha in experiment [3] and in experiment [6] was 100% each time.
Consider `C[C@H](NC(=O)c1cc(OC(F)(F)F)cc(C2(C#N)CC2)c1)c1ncnn1-c1cc(C(N)=O)ncn1` [I-120], for which, in experiment [2], the pest or weed control at 32 µg/disc, 100 g/ha worked out at 100%. Besides, the values for the mortality at 100 g/ha in experiment [5], in experiment [3] and in experiment [4] were 90%, 100% and 100%, respectively. The mortality at 500 g/ha in experiment [3] and in experiment [6] was 100% throughout.
Take `C[C@H](NC(=O)c1cc(C#N)cc(OC(F)(F)F)c1)c1ncnn1-c1cc(C(N)=O)ncn1` [I-121]: the pest or weed control at 32 µg/disc, 100 g/ha in experiment [2] is 100%. Besides, the mortality at 100 g/ha in experiment [5] amounted to 90%; in experiment [3], 100%; in experiment [4], 100%. Further, the mortality at 500 g/ha in experiment [3] and in experiment [6] was 100% each time.
With `C[C@H](NC(=O)c1cc(Cl)cc(C#N)c1)c1ncnn1-c1cc(C(N)=O)ncn1` [I-125], the pest or weed control at 32 µg/disc, 100 g/ha in experiment [2] worked out at 100%. The figures for the mortality at 100 g/ha in experiment [5], in experiment [3] and in experiment [4] were 70%, 100% and 100%, respectively. Besides, the mortality at 500 g/ha in experiment [3] and in experiment [6] was 100% in each case.
As for `C[C@H](NC(=O)c1cc(C(F)(F)F)cc(C(F)(F)F)c1)c1ncnn1-c1cc(C(=O)N(C)C)ncn1` [I-129], the pest or weed control at 32 µg/disc, 100 g/ha in experiment [2] was 100%. In addition, the mortality at 100 g/ha in experiment [5] and in experiment [4] was 100% each time. The mortality at 500 g/ha in experiment [3] and in experiment [6] was 100% in each case.
With `Cc1nc([C@H](C)NC(=O)c2cc(C(F)(F)F)cc(C(F)(F)F)c2)n(-c2cc(C(N)=O)ncn2)n1` [I-136], the pest or weed control at 32 µg/disc, 100 g/ha in experiment [2] came out at 100%. For the same compound, the results for the mortality at 100 g/ha in experiment [5] and in experiment [4] were 90% and 100%, respectively. For the same compound, the mortality at 500 g/ha in experiment [3] and in experiment [6] was 100% throughout.
In the case of `C[C@H](NC(=O)c1cccc(S(=O)(=O)C(F)(F)F)c1)c1ncnn1-c1cc(C(N)=O)ncn1` [I-140], the pest or weed control at 32 µg/disc, 100 g/ha in experiment [2] is 100%. Also, the mortality at 100 g/ha in experiment [5] and in experiment [4] was 100% throughout. Also, the mortality at 500 g/ha in experiment [3] came to 100%; in experiment [6] it was 90%.
In the case of `C[C@H](NC(=O)c1cc(OC(F)(F)F)cc(C(C)(C)F)c1)c1ncnn1-c1cc(C#N)ncn1` [I-142], in experiment [2], the pest or weed control at 32 µg/disc, 100 g/ha turned out to be 100%. Moreover, the mortality at 100 g/ha in experiment [5] and in experiment [4] was 100% in each case. The mortality at 500 g/ha in experiment [3] and in experiment [6] was 100% throughout.
